Test results taken from patent publication US20240158393A1, “PYRIDONE COMPOUNDS AND METHODS OF USE” (Exelixis, Inc., priority 2021, published 2024).

Experiments:
[1] = biological target: T1, Human Axl (Homo sapiens, UniProt P30530); assay: Human AXL kinase assay (33P radiometric / HTRF KinEase); format: biochemical; conditions: protocols of Examples A-1 and/or A-2
T1 construct: Human AXL (residues 464-885)
T1 sequence (P30530 1-894 Q764R): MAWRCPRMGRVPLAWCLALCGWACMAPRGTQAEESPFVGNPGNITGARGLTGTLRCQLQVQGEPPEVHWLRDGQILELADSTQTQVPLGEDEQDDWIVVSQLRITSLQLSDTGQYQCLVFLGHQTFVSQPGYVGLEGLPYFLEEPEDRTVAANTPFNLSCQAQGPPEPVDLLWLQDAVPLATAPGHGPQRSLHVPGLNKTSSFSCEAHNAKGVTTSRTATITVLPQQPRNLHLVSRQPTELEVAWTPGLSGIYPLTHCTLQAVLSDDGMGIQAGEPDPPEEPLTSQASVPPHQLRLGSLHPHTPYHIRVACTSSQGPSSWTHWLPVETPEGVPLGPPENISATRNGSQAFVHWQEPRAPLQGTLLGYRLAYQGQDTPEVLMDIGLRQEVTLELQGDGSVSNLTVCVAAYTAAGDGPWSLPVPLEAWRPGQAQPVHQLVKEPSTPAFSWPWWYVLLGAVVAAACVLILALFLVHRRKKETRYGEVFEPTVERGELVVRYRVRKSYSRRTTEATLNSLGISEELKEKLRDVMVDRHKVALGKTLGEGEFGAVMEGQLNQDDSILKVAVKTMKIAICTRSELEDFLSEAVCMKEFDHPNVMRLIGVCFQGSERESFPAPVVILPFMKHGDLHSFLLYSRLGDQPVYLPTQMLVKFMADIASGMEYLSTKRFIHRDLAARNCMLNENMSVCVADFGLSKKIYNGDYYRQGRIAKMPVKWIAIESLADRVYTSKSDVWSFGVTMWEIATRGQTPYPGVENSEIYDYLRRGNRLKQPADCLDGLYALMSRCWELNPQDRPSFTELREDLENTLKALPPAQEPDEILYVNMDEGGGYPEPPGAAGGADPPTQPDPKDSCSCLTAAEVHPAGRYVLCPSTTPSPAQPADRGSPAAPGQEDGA
Method: (§1) Kinase activity and compound inhibition were investigated using the ^33P-Phosphoryl transfer radiometric kinase assay, performed using the KinaseProfiler™ service of Eurofins Pharma Discovery Services UK Limited. Dose-response experiments were performed using nine compound concentrations in a 96-well microtiter plate. For each assay, all compounds were prepared to a 50× final assay concentration (50 μM) in 100% DMSO, then diluted in a half-log series, with the final top concentration at 1 μM. This working stock of the compound was added to the assay well as the first component in the reaction, followed by the remaining components as detailed in the following assay protocols below. The positive control wells (100% kinase activity) contain all components of the reaction including 2% DMSO (control for solvent effects), except the compound of interest. Blank wells contain all components of the reaction, with the reference inhibitor, staurosporine. This reference compound was used to abolish kinase activity and generated the 0% kinase activity base-line. IC50 values were calculated by nonlinear regression analysis using the sigmoidal dose-response (variable slope) curve fit on XLFit version 5.3 (ID Business Solutions).
(§2) Kinase activity and compound inhibition were also investigated using the HTRF® KinEase assay (Cisbio Cat #62TKOPEB) per manufacturer's instructions. In short, compounds were delivered in 300 nL volumes at 10 different concentrations in DMSO (3% final) to empty 384-well assay plates (Corning cat #3824). A mixture of enzyme, 1 μM biotinylated peptide substrate, and buffer in 10 μL volume was added. The assay was started upon the addition of ATP (at Km). The 10 μL reaction was incubated at room temperature. The reaction was stopped upon the addition of detection buffer containing streptavidin-XL665 (5 μL) and TK antibody-Eu3+(5 μL). After a 60 min incubation at room temperature, the fluorescence at 665 nm and 620 nm was read on an Envision microplate reader (Perkin Elmer).
(§3) Kinase activity normalized to DMSO (100% activity) and reference compound at 1 μM and (0% activity) was calculated using the fluorescence ratio […]. IC50 values were calculated by nonlinear regression analysis using a 4-parameter logistic curve fit in ActivityBase XE (IDBS).
Example A-1: Human Axl (residues H473-A894 with Q764R, 161 nM) was incubated with 8 mM MOPS pH 7.0, 0.2 mM EDTA, 250 μM KKSRGDYMTMQIG (SEQ ID NO:1), 10 mM magnesium acetate and 10 μM [γ-^33P-ATP]. The reaction was initiated by the addition of the Mg/ATP mix. After incubation for 40 minutes at room temperature, the reaction was stopped by the addition of phosphoric acid to a concentration of 0.5%. A reaction aliquot of 10 μL was then spotted onto a P30 filtermat and washed four times for 4 minutes in 0.425% phosphoric acid and once in methanol prior to drying and scintillation counting. Incorporated ^33P was measured using the Wallac Microbeta scintillation counter (Perkin Elmer).
Example A-2: Human AXL (residues 464-885; CarnaBio, 1 ng/well) was also incubated with enzymatic buffer (Cisbio) supplemented with 5 mM MgCl2, 1 mM DTT, and Supplemental Enzymatic Buffer (SEB; Cisbio). The mixture was added to the pre-plated compounds. The reaction was initiated upon addition of ATP at Km (1.0 μM). The reaction was incubated at room temperature for 50 min and stopped upon the addition of SA-XL665 and TK-antibody both diluted in EDTA-containing kinase detection buffer (Cisbio). The kinase activity was calculated as stated above and the IC50 values were reported.

[2] = biological target: T2, Human Mer (Homo sapiens, UniProt Q12866); assay: Human Mer kinase assay (33P radiometric / HTRF KinEase); format: biochemical; conditions: protocols of Examples C-1 and/or C-2
T2 construct: Human Mer (residues R557-E882 with H628Q and R794A, 0.7 nM); purchased Eurofins Pharma Discovery Services UK Limited (KinaseProfiler service)
T2 sequence (Q12866 557-882 limits assumed): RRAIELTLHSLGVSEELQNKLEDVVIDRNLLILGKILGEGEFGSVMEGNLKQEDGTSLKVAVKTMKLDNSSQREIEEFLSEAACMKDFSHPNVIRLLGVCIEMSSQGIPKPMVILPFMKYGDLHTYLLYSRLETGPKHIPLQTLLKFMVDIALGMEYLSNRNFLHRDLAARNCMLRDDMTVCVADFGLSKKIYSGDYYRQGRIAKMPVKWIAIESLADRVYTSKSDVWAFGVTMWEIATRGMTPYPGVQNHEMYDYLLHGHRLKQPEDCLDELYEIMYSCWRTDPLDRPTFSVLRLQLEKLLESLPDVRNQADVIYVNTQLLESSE
Method: as §1, §2, §3
Example C-1: Human Mer (residues R557-E882 with H628Q and R794A, 0.7 nM) was incubated with 8 mM MOPS pH 7.0, 0.2 mM EDTA, 30 mM NaCl, 250 μM GGMEDIYFEFMGGKKK (SEQ ID NO: 2), 10 mM magnesium acetate, and 10 μM [γ-^33P-ATP]. The reaction was initiated by the addition of the Mg/ATP mix. After incubation for 40 minutes at room temperature, the reaction was stopped by the addition of phosphoric acid to a concentration of 0.5%. A reaction aliquot of 10 μL was then spotted onto a P30 filtermat and washed four times for 4 minutes in 0.425% phosphoric acid and once in methanol prior to drying and scintillation counting. Incorporated ^33P was measured using the Wallac Microbeta scintillation counter (Perkin Elmer).
Example C-2: Human MER (residues 528-999; CarnaBio, 1 ng/well) was also incubated with enzymatic buffer (Cisbio) supplemented with 5 mM MgCl2 and 1 mM DTT. The mixture was added to the pre-plated compounds. The reaction was initiated upon addition of ATP at Km (40 μM). The reaction was incubated at room temperature for 60 min and stopped upon the addition of SA-XL665 and TK-antibody both diluted in EDTA-containing kinase detection buffer (Cisbio). The kinase activity was calculated as stated above and the IC50 values were reported.

IC50 [1]: ≤ 100 nM
IC50 [2]: ≤ 100 nM
SMILES: COCCOc1cnc2c(Oc3ccc(NC(=O)c4c(C)nc(C)c(C5=CCCC5)c4O)cc3F)ccnc2c1 [Compound 101, 5-(Cyclopenten-1-yl)-N-[3-fluoro-4-[[7-(2-methoxyethoxy)-1,5-naphthyridin-4-yl]oxy]phenyl]-4-hydroxy-2,6-dimethylpyridine-3-carboxamide]
